Reference: patent US20090299044A1 (priority 2006, published 2009)
pIC50: −log10 of the molar value. Bridge positions count the residues as written; N and C are the ends. Peptide text beside a SMILES is read from it.

Legend:
Assay in all cases: cell-based
human Kv1.1 = human Kv1.1 (Homo sapiens, UniProt Q09470); parameters: expressed in transfected cells; host or cells: HEK293; settings: Kv1.1 (IC50, pM)
human Kv1.3 channel = human Kv1.3 channel (Homo sapiens, UniProt P22001); type: cell-based
human Kv1.3 (CHO) = target: T1, human Kv1.3 (CHO) (Homo sapiens, UniProt P22001)
T1 construct: expressed in transfected cells; host or cells: CHO
T1 sequence (P22001 whole entry): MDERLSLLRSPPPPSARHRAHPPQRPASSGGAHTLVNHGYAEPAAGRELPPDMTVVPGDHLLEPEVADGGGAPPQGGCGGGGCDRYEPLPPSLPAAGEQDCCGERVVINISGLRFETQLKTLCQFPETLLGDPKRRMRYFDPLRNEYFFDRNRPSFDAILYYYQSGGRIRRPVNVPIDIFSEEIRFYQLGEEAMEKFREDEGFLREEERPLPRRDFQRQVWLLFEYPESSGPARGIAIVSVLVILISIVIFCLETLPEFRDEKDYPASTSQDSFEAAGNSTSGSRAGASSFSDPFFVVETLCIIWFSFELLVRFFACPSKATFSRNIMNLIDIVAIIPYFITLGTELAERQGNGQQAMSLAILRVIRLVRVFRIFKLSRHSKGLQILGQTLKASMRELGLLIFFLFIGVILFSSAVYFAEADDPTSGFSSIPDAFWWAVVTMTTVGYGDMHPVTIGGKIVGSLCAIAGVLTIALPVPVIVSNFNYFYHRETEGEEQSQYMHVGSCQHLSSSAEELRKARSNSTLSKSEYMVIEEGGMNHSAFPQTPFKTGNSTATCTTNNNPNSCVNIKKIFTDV

human Kv1.1 (HEK293) = target: T2, human Kv1.1 (HEK293) (Homo sapiens, UniProt Q09470)
T2 construct: expressed in transfected cells; host or cells: HEK293
T2 sequence (Q09470 whole entry): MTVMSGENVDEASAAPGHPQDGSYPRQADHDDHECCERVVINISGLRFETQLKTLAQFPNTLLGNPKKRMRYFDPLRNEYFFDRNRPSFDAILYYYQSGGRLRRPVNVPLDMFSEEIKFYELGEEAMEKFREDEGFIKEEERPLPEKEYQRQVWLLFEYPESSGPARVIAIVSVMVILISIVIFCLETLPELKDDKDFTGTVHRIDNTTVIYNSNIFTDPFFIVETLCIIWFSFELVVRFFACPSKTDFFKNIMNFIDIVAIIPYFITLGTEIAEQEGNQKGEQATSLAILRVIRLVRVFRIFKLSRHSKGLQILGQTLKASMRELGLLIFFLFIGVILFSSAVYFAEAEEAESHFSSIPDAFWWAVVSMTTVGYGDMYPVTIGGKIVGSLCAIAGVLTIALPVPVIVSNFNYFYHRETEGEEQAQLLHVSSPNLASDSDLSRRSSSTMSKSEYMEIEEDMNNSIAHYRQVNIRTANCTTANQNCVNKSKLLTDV

Chain of human Kv1.1 (Q09470 whole entry): as above
Chain of human Kv1.3 channel (P22001 whole entry): as the sequence (P22001 whole entry) above

| Molecule | IC50 (human Kv1.1) [pM] | pIC50 (human Kv1.3 channel) | pIC50 (human Kv1.3 (CHO)) | pIC50 (human Kv1.1 (HEK293)) | fold difference in Kv1.3 potency compared to Fc-L10-OSK1 (human Kv1.3 channel) [fold] |
| --- | --- | --- | --- | --- | --- |
| CC[C@H](C)[C@@H]1NC(=O)[C@H](CCCCN)NC(=O)[C@@H](NC(=O)[C@H](CCCCN)NC(=O)[C@@H](NC(=O)[C@H](CC(N)=O)NC(=O)[C@@H](NC(=O)[C@@H](NC(=O)[C@@H](NC(=O)CN)C(C)C)[C@@H](C)CC)[C@@H](C)CC)C(C)C)CSSC[C@@H]2NC(=O)[C@H](CCCCN)NC(=O)CNC(=O)[C@H](Cc3ccccc3)NC(=O)[C@H](CCCNC(=N)N)NC(=O)[C@H](CCSC)NC(=O)CNC(=O)[C@H](C)NC(=O)[C@H](CCCCN)NC(=O)[C@H](CCCCN)NC(=O)[C@@H]3CSSC[C@@H](C(=O)N[C@H](C(=O)N4CCC[C@H]4C(=O)N[C@@H](CCCCN)C(=O)O)[C@@H](C)O)NC(=O)[C@H](Cc4c[nH]cn4)NC(=O)[C@H](CSSC[C@H](NC(=O)[C@H](CCC(N)=O)NC(=O)[C@H](CCCNC(=N)N)NC(=O)[C@H](CCCNC(=N)N)NC1=O)C(=O)N[C@@H](CC(C)C)C(=O)N[C@@H](CCC(=O)O)C(=O)N1CCC[C@H]1C(=O)N3)NC(=O)[C@H](CCCCN)NC(=O)CNC(=O)[C@H](CC(N)=O)NC(=O)[C@H](CCSC)NC2=O [S11R] (H-GVIINVKCKIRRQCLEPCKKAGMRFGKCMNGKCHCTPK-OH; disulfide 8-28, 14-33, 18-35) | 9130 | 10.40 | 10.78 | 9.68 |  |
| CC[C@H](C)[C@@H]1NC(=O)[C@H](CCCCN)NC(=O)[C@@H](NC(=O)[C@H](CCCCN)NC(=O)[C@@H](NC(=O)[C@H](CC(N)=O)NC(=O)[C@@H](NC(=O)[C@@H](NC(=O)[C@@H](NC(=O)CN)C(C)C)[C@@H](C)CC)[C@@H](C)CC)C(C)C)CSSC[C@@H]2NC(=O)[C@H](CCCCN)NC(=O)CNC(=O)[C@H](Cc3ccccc3)NC(=O)[C@H](CCCNC(=N)N)NC(=O)[C@H](CCSC)NC(=O)CNC(=O)[C@H](C)NC(=O)[C@H](CCCCN)NC(=O)[C@H](CCCCN)NC(=O)[C@@H]3CSSC[C@@H](C(=O)N[C@H](C(=O)N4CCC[C@H]4C(=O)N[C@@H](CCCCN)C(=O)O)[C@@H](C)O)NC(=O)[C@H](Cc4c[nH]cn4)NC(=O)[C@H](CSSC[C@H](NC(=O)[C@H](CCC(N)=O)NC(=O)[C@H](CCCNC(=N)N)NC(=O)[C@H](CO)NC1=O)C(=O)N[C@@H](CCC(=O)O)C(=O)N[C@@H](CCC(=O)O)C(=O)N1CCC[C@H]1C(=O)N3)NC(=O)[C@H](CCCCN)NC(=O)CNC(=O)[C@H](CC(N)=O)NC(=O)[C@H](CCSC)NC2=O [L15E] (H-GVIINVKCKISRQCEEPCKKAGMRFGKCMNGKCHCTPK-OH; disulfide 8-28, 14-33, 18-35) | 65000 | 9.72 | 10.32 | 9.36 |  |
| CC[C@H](C)[C@@H]1NC(=O)[C@H](CCCCN)NC(=O)[C@@H](NC(=O)[C@H](CCCCN)NC(=O)[C@@H](NC(=O)[C@H](CC(N)=O)NC(=O)[C@@H](NC(=O)[C@@H](NC(=O)[C@@H](NC(=O)CN)C(C)C)[C@@H](C)CC)[C@@H](C)CC)C(C)C)CSSC[C@@H]2NC(=O)[C@H](CCCCN)NC(=O)CNC(=O)[C@H](Cc3ccccc3)NC(=O)[C@H](CCCNC(=N)N)NC(=O)[C@H](CCSC)NC(=O)CNC(=O)[C@H](C)NC(=O)[C@H](CCCCN)NC(=O)[C@H](CCCCN)NC(=O)[C@@H]3CSSC[C@@H](C(=O)N[C@H](C(=O)N4CCC[C@H]4C(=O)N[C@@H](CCCCN)C(=O)O)[C@@H](C)O)NC(=O)[C@H](CCC(=O)O)NC(=O)[C@H](CSSC[C@H](NC(=O)[C@H](CCC(N)=O)NC(=O)[C@H](CCCNC(=N)N)NC(=O)[C@H](CO)NC1=O)C(=O)N[C@@H](CC(C)C)C(=O)N[C@@H](CCC(=O)O)C(=O)N1CCC[C@H]1C(=O)N3)NC(=O)[C@H](CCCCN)NC(=O)CNC(=O)[C@H](CC(N)=O)NC(=O)[C@H](CCSC)NC2=O [H34E] (H-GVIINVKCKISRQCLEPCKKAGMRFGKCMNGKCECTPK-OH; disulfide 8-28, 14-33, 18-35) | 39400 | 8.88 | 9.48 | 8.77 |  |
| Fc-L10-OSK1[K7S]: OSK1-peptibody with lysine to serine substitution at position 7 |  |  |  |  | 2 |
| CC[C@H](C)[C@@H]1NC(=O)[C@H](CCCCN)NC(=O)[C@@H](NC(=O)[C@H](CCCCN)NC(=O)[C@@H](NC(=O)[C@H](CC(N)=O)NC(=O)[C@@H](NC(=O)[C@@H](NC(=O)[C@@H](NC(=O)CN)C(C)C)[C@@H](C)CC)[C@@H](C)CC)C(C)C)CSSC[C@@H]2NC(=O)[C@H](CCCCN)NC(=O)CNC(=O)[C@H](Cc3ccccc3)NC(=O)[C@H](CCCNC(=N)N)NC(=O)[C@H](CCSC)NC(=O)CNC(=O)[C@H](C)NC(=O)[C@H](CCCCN)NC(=O)[C@H](CCCCN)NC(=O)[C@@H]3CSSC[C@@H](C(=O)N[C@@H](CCC(=O)O)C(=O)N4CCC[C@H]4C(=O)N[C@@H](CCCCN)C(=O)O)NC(=O)[C@H](Cc4c[nH]cn4)NC(=O)[C@H](CSSC[C@H](NC(=O)[C@H](CCC(N)=O)NC(=O)[C@H](CCCNC(=N)N)NC(=O)[C@H](CO)NC1=O)C(=O)N[C@@H](CC(C)C)C(=O)N[C@@H](CCC(=O)O)C(=O)N1CCC[C@H]1C(=O)N3)NC(=O)[C@H](CCCCN)NC(=O)CNC(=O)[C@H](CC(N)=O)NC(=O)[C@H](CCSC)NC2=O [T36E] (H-GVIINVKCKISRQCLEPCKKAGMRFGKCMNGKCHCEPK-OH; disulfide 8-28, 14-33, 18-35) | 83900 | 8.72 | 9.79 | < 8.48 |  |
| CC[C@H](C)[C@@H]1NC(=O)[C@H](CCCCN)NC(=O)[C@@H](NC(=O)[C@H](CCCCN)NC(=O)[C@@H](NC(=O)[C@H](CC(N)=O)NC(=O)[C@@H](NC(=O)[C@@H](NC(=O)[C@@H](NC(=O)CN)C(C)C)[C@@H](C)CC)[C@@H](C)CC)C(C)C)CSSC[C@@H]2NC(=O)[C@H](CCCCN)NC(=O)CNC(=O)[C@H](Cc3ccccc3)NC(=O)[C@H](CCCNC(=N)N)NC(=O)[C@H](CCSC)NC(=O)CNC(=O)[C@H](C)NC(=O)[C@H](CCCCN)NC(=O)[C@H](CCCCN)NC(=O)[C@@H]3CSSC[C@@H](C(=O)N[C@H](C(=O)N4CCC[C@H]4C(=O)N[C@@H](CCCCN)C(=O)O)[C@@H](C)O)NC(=O)[C@H](Cc4c[nH]cn4)NC(=O)[C@H](CSSC[C@H](NC(=O)[C@H](CCC(N)=O)NC(=O)[C@H](CCCNC(=N)N)NC(=O)[C@H](CO)NC1=O)C(=O)N[C@@H](CC(C)C)C(=O)N[C@@H](CCC(=O)O)C(=O)N1CCC[C@H]1C(=O)N3)NC(=O)[C@H](CCCCN)NC(=O)CNC(=O)[C@H](CC(N)=O)NC(=O)[C@H](CCCNC(=N)N)NC2=O [M29R] (H-GVIINVKCKISRQCLEPCKKAGMRFGKCRNGKCHCTPK-OH; disulfide 8-28, 14-33, 18-35) | 23000 | 9.12 | 9.70 | 8.73 |  |
| CC[C@H](C)[C@@H]1NC(=O)[C@H](CCCCN)NC(=O)[C@@H](NC(=O)[C@H](CCCCN)NC(=O)[C@@H](NC(=O)[C@H](CC(N)=O)NC(=O)[C@@H](NC(=O)[C@@H](NC(=O)[C@@H](NC(=O)CN)C(C)C)[C@@H](C)CC)[C@@H](C)CC)C(C)C)CSSC[C@@H]2NC(=O)[C@H](CCCCN)NC(=O)CNC(=O)[C@H](Cc3ccccc3)NC(=O)[C@H](C)NC(=O)[C@H](CCSC)NC(=O)CNC(=O)[C@H](C)NC(=O)[C@H](CCCCN)NC(=O)[C@H](CCCCN)NC(=O)[C@@H]3CSSC[C@@H](C(=O)N[C@H](C(=O)N4CCC[C@H]4C(=O)N[C@@H](CCCCN)C(=O)O)[C@@H](C)O)NC(=O)[C@H](Cc4c[nH]cn4)NC(=O)[C@H](CSSC[C@H](NC(=O)[C@H](CCC(N)=O)NC(=O)[C@H](CCCNC(=N)N)NC(=O)[C@H](CO)NC1=O)C(=O)N[C@@H](CC(C)C)C(=O)N[C@@H](CCC(=O)O)C(=O)N1CCC[C@H]1C(=O)N3)NC(=O)[C@H](CCCCN)NC(=O)CNC(=O)[C@H](CC(N)=O)NC(=O)[C@H](CCSC)NC2=O [R24A] (H-GVIINVKCKISRQCLEPCKKAGMAFGKCMNGKCHCTPK-OH; disulfide 8-28, 14-33, 18-35) |  |  | < 8.52 | 8.72 |  |
| CC[C@H](C)[C@@H]1NC(=O)[C@H](CCCCN)NC(=O)[C@@H](NC(=O)[C@H](CCCCN)NC(=O)[C@@H](NC(=O)[C@H](CC(N)=O)NC(=O)[C@@H](NC(=O)[C@@H](NC(=O)[C@@H](NC(=O)CN)C(C)C)[C@@H](C)CC)[C@@H](C)CC)C(C)C)CSSC[C@@H]2NC(=O)[C@H](CCCCN)NC(=O)CNC(=O)[C@H](Cc3ccccc3)NC(=O)[C@H](CCCNC(=N)N)NC(=O)[C@H](CCSC)NC(=O)CNC(=O)[C@H](C)NC(=O)[C@H](CCCCN)NC(=O)[C@H](CCCCN)NC(=O)[C@@H]3CSSC[C@@H](C(=O)N[C@H](C(=O)N4CCC[C@H]4C(=O)N[C@@H](CCCCN)C(=O)O)[C@@H](C)O)NC(=O)[C@H](Cc4c[nH]cn4)NC(=O)[C@H](CSSC[C@H](NC(=O)[C@H](CCC(N)=O)NC(=O)[C@H](CCCNC(=N)N)NC(=O)[C@H](CO)NC1=O)C(=O)N[C@@H](CC(C)C)C(=O)N[C@@H](CCC(=O)O)C(=O)N1CCC[C@H]1C(=O)N3)NC(=O)[C@H](CCCCN)NC(=O)CNC(=O)[C@H](CC(N)=O)NC(=O)[C@H](C)NC2=O [M29A] (H-GVIINVKCKISRQCLEPCKKAGMRFGKCANGKCHCTPK-OH; disulfide 8-28, 14-33, 18-35) | 3470 |  | 10.23 | < 8.48 |  |
